What all share (format): biochemical
The target in experiment [1] is T1, BSL-B (Bacillus subtilis lipase B) (Bacillus subtilis, UniProt Q79F14).
T1 construct: gene estB
T1 sequence (Q79F14 29-210): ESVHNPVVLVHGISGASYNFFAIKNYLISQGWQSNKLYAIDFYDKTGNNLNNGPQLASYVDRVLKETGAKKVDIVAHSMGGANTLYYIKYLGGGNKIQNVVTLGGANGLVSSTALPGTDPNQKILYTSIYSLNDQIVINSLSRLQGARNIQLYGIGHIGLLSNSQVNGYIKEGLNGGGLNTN
Description: residual hydrolytic activity, p-nitrophenylpalmitate assay. The settings on record: read-out: residual activity at 50 mM.

The target in experiment [2] is T2, BSL-A (Bacillus subtilis lipase A) (Bacillus subtilis, UniProt P37957).
T2 construct: gene estA
T2 sequence (P37957 32-212): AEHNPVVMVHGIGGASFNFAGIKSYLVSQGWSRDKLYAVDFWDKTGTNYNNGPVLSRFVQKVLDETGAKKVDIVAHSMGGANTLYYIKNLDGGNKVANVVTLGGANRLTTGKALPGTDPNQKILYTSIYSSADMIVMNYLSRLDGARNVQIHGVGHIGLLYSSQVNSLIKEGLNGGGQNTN
Put plainly: p-nitrophenylpalmitate hydrolysis assay.

Experiment [3] deals with T1, BSL-B (Bacillus subtilis lipase B). Put plainly: p-nitrophenylpalmitate hydrolysis assay.

Consider `CC=CC=CC=O` [2,4-hexadienal], for which the remaining activity at 50000 µM in experiment [1] amounted to 19%. For the compound `CCCCCCCCCCCCCCCC(=O)Oc1ccc([N+](=O)[O-])cc1` [pNPP, p-nitrophenylpalmitate], the results for the p-nitrophenylpalmitate hydrolysis assay entry in experiment [2] and in experiment [3] were “assayed for residual activity using the p-nitrophenylpalmitate assay” and “residual enzyme activity determined with p-nitrophenylpalmitate as the substrate”, respectively.

(Values after paper PMC3049140, “Mechanism of acetaldehyde-induced deactivation of microbial lipases” (BMC Biochemistry, 2011).)
